The text below walks through data of ChEMBL document CHEMBL3228022, “Synthesis of 2,3,4,4a,5,9b-hexahydro-1H-pyrido[4,3-b]indole derivatives and their central nervous system activities” (1979).

What is called inhibition in vivo is the percentage by which the read-out fell short of the control. The ED50 is the dose at which the effect has come halfway, by size or by number of responders.

Test [1] deals with Rattus norvegicus. Kind of test: Neuroleptic activity in Wistar HLA rat assessed as stimulation of methamphetamine-induced stereotyped behavior at 2 mg/kg, ip administered 20 mins before methamphetamine challenge measured every 30 mins for 3 hrs followed by every 1 hr for further 3 hrs. The following applies: route intraperitoneal. It counts as functional.
Test [2] deals with Mus musculus. Kind of test: Neuroleptic activity in STD-ddy mouse assessed as muscle relaxation at 100 mg/kg, po after 20 mins. Type of test: functional, organism-based. Also noted: dose 100 mg/kg.
The test system of test [3] is Rattus norvegicus. Put plainly: Neuroleptic activity in Wistar HLA rat assessed as stimulation of methamphetamine-induced stereotyped behavior at 10 mg/kg, ip administered 20 mins before methamphetamine challenge measured every 30 mins for 3 hrs followed by every 1 hr for further 3 hrs. Type of test: functional. The following applies: route intraperitoneal.
The test system of test [4] is Mus musculus. Kind of test: Neuroleptic activity in STD-ddy mouse assessed as inhibition of locomotion at 10 mg/kg, po measured for 3 mins. Type of test: functional. The following applies: 0.05 h.
The subject of test [5] is Mus musculus. Kind of test: Neuroleptic activity in STD-ddy mouse assessed as catalepsy at 100 mg/kg, po measured up to 30 secs. It counts as functional, organism-based. The arrangement: dose 100 mg/kg.
Test [6] has as its system Mus musculus. Put plainly: Neuroleptic activity in po dosed STD-ddy mouse assessed as catalepsy measured up to 30 secs. Type of test: functional.
Test [7] has as its system Mus musculus. Kind of test: Neuroleptic activity in po dosed STD-ddy mouse assessed as inhibition of methamphetamine-induced stereotyped behavior administered 100 mins before methamphetamine challenge measured for 20 mins. Type of test: functional.
The test system of test [8] is Rattus norvegicus. Put plainly: Neuroleptic activity in sc dosed Wistar HLA rat assessed as inhibition of apomorphine-induced gnawing administered 1 hr before apomorphine challenge measured 5 to 20 mins. Type of test: functional.
The test system of test [9] is Rattus norvegicus. Put plainly: Neuroleptic activity in Wistar HLA rat assessed as stimulation of methamphetamine-induced stereotyped behavior at 5 mg/kg, ip administered 20 mins before methamphetamine challenge measured every 30 mins for 3 hrs followed by every 1 hr for further 3 hrs. The following applies: route intraperitoneal. It counts as functional.
Test [10] relates to Rattus norvegicus. Kind of test: Neuroleptic activity in Wistar HLA rat assessed as inhibition of methamphetamine-induced stereotyped behavior at 1 mg/kg, ip administered 20 mins before methamphetamine challenge measured every 30 mins for 3 hrs followed by every 1 hr for further 3 hrs. Type of test: functional. The arrangement: Activity: scale not given: the % may be the effect or the level left. The following applies: route intraperitoneal.

Test [11] deals with Mus musculus. Put plainly: Neuroleptic activity in STD-ddy mouse assessed as inhibition of locomotion at 100 mg/kg, po measured for 3 mins. The following applies: 0.05 h. It counts as functional.
Test [12] has as its system Mus musculus. Put plainly: Neuroleptic activity in po dosed STD-ddy mouse assessed as inhibition of active avoidance. It counts as functional.
Test [13] concerns Mus musculus. Put plainly: Neuroleptic activity in po dosed STD-ddy mouse assessed as inhibition of locomotion measured for 3 mins. Type of test: functional. Particulars: 0.05 h.
Test [14] has as its system Rattus norvegicus. Kind of test: Neuroleptic activity in Wistar HLA rat assessed as inhibition of methamphetamine-induced stereotyped behavior at 0.2 mg/kg, ip administered 20 mins before methamphetamine challenge measured every 30 mins for 3 hrs followed by every 1 hr for further 3 hrs. The following applies: route intraperitoneal. The arrangement: scale not given: the % may be the effect or the level left. Type of test: functional.

Test [15] has as its system Rattus norvegicus. Put plainly: Neuroleptic activity in Wistar HLA rat assessed as inhibition of methamphetamine-induced stereotyped behavior at 0.1 mg/kg, ip administered 20 mins before methamphetamine challenge measured every 30 mins for 3 hrs followed by every 1 hr for further 3 hrs. It counts as functional. The arrangement: scale not given: the % may be the effect or the level left. Particulars: route intraperitoneal.

Test [16] relates to Rattus norvegicus. Put plainly: Neuroleptic activity in Wistar HLA rat assessed as inhibition of methamphetamine-induced stereotyped behavior at 0.5 mg/kg, ip administered 20 mins before methamphetamine challenge measured every 30 mins for 3 hrs followed by every 1 hr for further 3 hrs. It counts as functional. The arrangement: scale not given: the % may be the effect or the level left. Particulars: route intraperitoneal.

Test [17] has as its system Rattus norvegicus. Kind of test: Neuroleptic activity in ip dosed Wistar HLA rat assessed as inhibition of intracranial self-stimulation measured for 1 to 24 hrs. It counts as functional.
Test [18] has as its system Rattus norvegicus. Kind of test: Neuroleptic activity in Wistar HLA rat assessed as inhibition of methamphetamine-induced stereotyped behavior at 2 mg/kg, ip administered 20 mins before methamphetamine challenge measured every 30 mins for 3 hrs followed by every 1 hr for further 3 hrs. The arrangement: Activity: scale not given: the % may be the effect or the level left. Type of test: functional. The following applies: route intraperitoneal.

Test [19] relates to Rattus norvegicus. Put plainly: Neuroleptic activity in Wistar HLA rat assessed as inhibition of methamphetamine-induced stereotyped behavior at 10 mg/kg, ip administered 20 mins before methamphetamine challenge measured every 30 mins for 3 hrs followed by every 1 hr for further 3 hrs. Type of test: functional. The following applies: Rattus norvegicus, Wistar HLA, ip, route intraperitoneal.

The subject of test [20] is Rattus norvegicus. Kind of test: Neuroleptic activity in Wistar HLA rat assessed as inhibition of methamphetamine-induced stereotyped behavior at 5 mg/kg, ip administered 20 mins before methamphetamine challenge measured every 30 mins for 3 hrs followed by every 1 hr for further 3 hrs. Type of test: functional. The arrangement: Activity: scale not given: the % may be the effect or the level left. The following applies: route intraperitoneal.

The test system of test [21] is Rattus norvegicus. Kind of test: Neuroleptic activity in po dosed Wistar HLA rat assessed as inhibition of intracranial self-stimulation measured for 1 to 24 hrs. Type of test: functional.

SMILES strings stand for the structures. Active and inactive are the calls of the source. No cut-off for these calls is given here. Some results are limits rather than exact numbers.

`Cc1ccc2c(c1)[C@H]1CN(CCCC(=O)c3ccc(F)cc3)CC[C@H]1N2.Cl` (relative stereo): the Activity is reported as 50% in the test with Rattus norvegicus [1], 50% in the test with Rattus norvegicus [3], more than 75% in the test on Rattus norvegicus [9] and 0% in the test with Rattus norvegicus [10]. In addition, the outcome with Mus musculus [2] and in the test with Mus musculus [5] was Active. For the same molecule, in the test with Mus musculus [4], the inhibition in vivo at 10 mg/kg is 75.9%. Moreover, the ED50 with Mus musculus [6] is 15.3 mg/kg; with Mus musculus [7], 23.8 mg/kg; in the test on Rattus norvegicus [8], 16.5 mg/kg; in the test on Mus musculus [12], 10 mg/kg; with Mus musculus [13] it was 9.3 mg/kg. The inhibition in vivo at 100 mg/kg in the test on Mus musculus [11] was 97.8%.
Take `O=C(CCCN1CCC(O)(c2ccc(Cl)cc2)CC1)c1ccc(F)cc1` [HALOPERIDOL]: the values for the Activity with Rattus norvegicus [14], in the test with Rattus norvegicus [15] and in the test with Rattus norvegicus [16] were 25%, 0% and more than 75%, respectively. In addition, in the test with Rattus norvegicus [10] (Rattus norvegicus, Wistar HLA, ip), the inhibition in vivo at 1 mg/kg was more than 75%.
Turning to `CN(C)CCCN1c2ccccc2Sc2ccc(Cl)cc21` [CHLORPROMAZINE], the result in the test with Mus musculus [2] and with Mus musculus [5] was Active. For the same molecule, the ED50 is 2.1 mg/kg with Rattus norvegicus [17]; 9.97 mg/kg in the test on Mus musculus [6]; 13.3 mg/kg in the test with Mus musculus [7]; 3.25 mg/kg in the test on Rattus norvegicus [8]; 5.59 mg/kg in the test with Mus musculus [12]; 7.42 mg/kg in the test on Mus musculus [13]. Moreover, the Activity in the test on Rattus norvegicus [18] is 0%; in the test with Rattus norvegicus [20], 50%. Besides, the inhibition in vivo at 10 mg/kg in the test with Mus musculus [4] is 67.6%; in the test with Rattus norvegicus [19], more than 75%. Further, the inhibition in vivo at 100 mg/kg in the test on Mus musculus [11] was 97.4%.
For `Cc1ccc2c(c1)[C@H]1CN(C)CC[C@H]1N2` (relative stereo) [STOBADINE], the Activity with Rattus norvegicus [1] is on record as 25%; in the test with Rattus norvegicus [3], more than 75%; in the test with Rattus norvegicus [9], 50%; in the test with Rattus norvegicus [10], 0%. In addition, the result in the test on Mus musculus [2] and in the test on Mus musculus [5] was inactive. The ED50 with Rattus norvegicus [21] is more than 100 mg/kg; in the test on Mus musculus [6], more than 150 mg/kg; with Mus musculus [7] it was more than 100 mg/kg; with Rattus norvegicus [8], more than 100 mg/kg; in the test on Mus musculus [13] it was 150 mg/kg. Also, the inhibition in vivo at 100 mg/kg in the test with Mus musculus [11] worked out at 37.6%.
